Entries after “also recorded” stand apart in the source; their conditions may differ.
Legend:
[1] = system: MDA-MB-231 cells; test: alamar Blue cell viability assay; format: cell-based; conditions: MDA-MB-231, imipramine 5-100 μM, 96 hours
Protocol: (§1) The data shown are mean±SEM. *, P<0.05; **, P<0.01; ***, P<0.001; ****, P<0.0001 versus control group, t-test.
(§2) Cell viability was assessed using alamar Blue cell viability assay.

[2] = system: MDA-MB-468 cells; test: alamar Blue cell viability assay; format: cell-based; conditions: MDA-MB-468, imipramine 5-100 μM, 96 hours
Protocol: as §1, §2

[3] = system: MDA-MB-231 cells; test: transwell migration assay; format: cell-based; conditions: MDA-MB-231, 20 μM for 48 hrs
[4] = system: MDA-MB-231 cells; test: transwell invasion assay; format: cell-based; conditions: MDA-MB-231, 20 μM for 48 hrs
[5] = system: MDA-MB-231 cells implanted into the mammary fat pad; conditions: 16 escalated to 20 or 32 escalated to 40 mg/kg body weight, ip daily for thirty days
Protocol: MDA-MB-231 cells were implanted into the mammary fat pad of athymic nude mice. […] After the 30th day, the mice were euthanized, and the tumors were isolated and processed for molecular and immunohistologic studies. Tumor volume was calculated by using the formula 0.5236L1 (L2)^2, where L1 is long axis and L2 is the short axis of the tumor.

[6] = system: MDA-MB-231-GFP-luc cells implanted into the mammary fat pad; test: orthotopic xenograft study, imipramine and olaparib; format: in vivo, athymic nude mice; conditions: weeks 4 and 5; imipramine 40 mg/kg or olaparib 50 mg/kg body weight
Protocol: To evaluate whether imipramine can sensitize the response to olaparib treatment, an orthotopic xenograft study was performed. […] Mice were treated for 4 weeks starting week 1 after tumor implantation. Tumor volumes were measured twice a week.

[7] = system: MDA-MB-231 cells; test: RNA seq gene expression profiling; format: cell-based; conditions: 96 hours
Protocol: RNA samples were further processed for gene expression profiling using Illumina HiSeq 2000 following manufacturer's standard protocol (Illumina, San Diego, CA). Differential expression analysis was performed by using DEseq, and significant genes with at least 1.5-fold change with p<0.05 were chosen for analysis. Using all significant and differentially expressed genes from the RNA-seq data, Ingenuity Pathway Analysis software (IPA) was used to interpret the biological pathways. Total protein extracted from cell lines were subjected to western blot analysis.

[8] = system: IL-10; conditions: Mukherjee et al., 2014; cited from earlier work
[9] = system: IL-12; conditions: Mukherjee et al., 2014; cited from earlier work

Row | Compound | viability of breast cancer cells compared to vehicle-treated cells [1] | viability of breast cancer cells compared to vehicle-treated cells [2] | migration of breast cancer cells compared with vehicle control [3] | invasion of breast cancer cells compared with vehicle control [4] | tumor growth (mean tumor volume) compared to vehicle control [5] | tumor size compared to vehicle control [5] | tumor weight compared to vehicle control [5] | difference in tumor growth, control vs single agent [6] | expression of cell cycle and DNA repair genes FOXM1, CyclinD1, PLK1, SKP2, XRCC3 and RAD51 [7] | effect on IL-10 [8] | effect on levels of IL-12 [9]
1 | CN(C)CCCN1c2ccccc2CCc2ccccc21 [imipramine] | significantly reduced viability | significantly reduced viability | reduction | reduction | significantly reduced | significantly reduced | reduced tumor weight in a dose dependent manner; also recorded: significantly reduced | significant difference | reduced expression | inhibit | elevate
2 | O=C(c1cc(Cc2n[nH]c(=O)c3ccccc23)ccc1F)N1CCN(C(=O)C2CC2)CC1 [olaparib] | – | – | – | – | – | – | – | significant difference | – | – | –

Source: patent US20240082255A1 (Board of Regents, The University of Texas System, priority 2017, published 2024)
